“Also recorded” adds a separate entry of the source.
Test system: EGF/PDGF pathway genes
Assay: qPCR array of EGF/PDGF pathway genes
Assay type: cell-based, human
Parameters: key to expression class: +: Maximum expression; −: Minimum expression; unc.: Unchanged
Conditions: 10 nM, 4 h; for fold change: vs serum-free medium
Procedure: Cells were seeded at 80,000 cells per well of 24-well plates in 400 µL of complete growth medium. Cells were grown in MEM basal medium supplemented with 10% FBS and 1% antibiotic–antimycotic in a humidified incubator at 37 °C, equilibrated with 5% CO2. After 24 h of culture, the medium was removed, washed once with PBS, replaced with serum-free medium and left to culture for another 16 h. Medium was removed and replaced with corresponding treatment medium each in triplicates; 10 nM and 50 nM of Sh-EGFl-1, 10 nM and 50 nM of rhEGF were used as a positive control and serum-free medium was used as a negative control. Cells were harvested after 4 h. Medium was removed and 200 μL of Trizol reagent (Thermo Scientific, Waltham, MA, USA) was immediately added.
RNA extraction was performed according to Trizol reagent manufacturer’s protocol. An elution volume of 15 μL RNase-free water was added before the concentration and purity were determined using NanoDrop.
A total of 100 ng RNA was used initially for the cDNA synthesis reaction. The reaction was carried out according to RT^2 First Strand Kit’s protocol (Qiagen, Venlo, Netherlands). Genomic DNA was removed according to the manufacturer’s protocol prior to cDNA strand generation.
The 10 μL cDNA of human skin cells was diluted with 91 μL prior to qPCR reaction. Primer pairs of 84 genes involved in the EGF pathway, five housekeeping genes such as ribosomal protein large, P0 (RPL0), glyceraldehyde-3-phosphate-dehydrogenase (GAPDH), beta-actin (ACTB), beta-2-microglobulin (B2M) and hypoxanthine phosphoribosyltransferase 1 (HPRT1), one positive control gene for genomic DNA contamination, three reverse transcription control genes and three PCR-positive controls were included in the Qiagen PAHS-040ZA qPCR array plate (Qiagen, Venlo, Netherlands). A list of all genes analyzed in this study is available in Supplementary Materials Table S7. The mixture reaction was prepared according to the protocol and run using BioRad CFX96TM. Samples of 10 nM rhEGF and 10 nM Sh-EGFl-1 were prepared in duplicates. The following thermal profile was applied: 1 cycle at 95 °C for 10 min, 40 cycles at 95 °C for 15 s, 60 °C for 1 min, with the ramp rate from 95 °C to 60 °C was set at 1 °C every second. The data were then analyzed through Qiagen web portal. Data for serum-free medium were selected as a control group and the differences in gene expression between control and treatment groups were calculated using the 2^(−delta delta CT) method. The difference, known as fold change, was obtained from the delta delta CT values, which are the genes of interest and the average housekeeping genes, followed by the delta delta CT (delta CT (treatment group)—delta CT (control group)).

[1] = IKBKB (IKK), PLC gamma signaling
[2] = PLCG1 (PLC), PLC gamma signaling
[3] = PPP2CA (TSC2), PLC gamma signaling
[4] = RASA1 (p120GAP), MAPK signaling
[5] = RPS6KA5 (p70S6K), MAPK signaling
[6] = RPS6KA5 (p70S6K), PI3K signaling
[7] = RPS6KA5 (p70S6K), PLC gamma signaling
[8] = RPS6KB1 (p70S6K), MAPK signaling
[9] = RPS6KB1 (p70S6K), PI3K signaling
[10] = RPS6KB1 (p70S6K), PLC gamma signaling

In the case of “H-NINECFSSPCENQGICQDEIDGYNCVCQPGFTGTHCESSMLNHVI-OH (disulfide) [Sh-EGFl-1, 45 amino acid EGF-like peptide from Stichopus horrens contig 498513, synthesized by Fmoc solid-phase peptide chemistry]”, the “gene expression of individual genes, in words” value was “relatively high expression of MAPK8, MAPK9, MAP2K7, MKK, MAPK1, ELK1 and c-JUN; also recorded: high expression of Src, Ras, Kras and Raf; also recorded: IL-2 is minimally expressed; also recorded: increased expression of the adaptor proteins Shc, Sos and Grb2”, the signaling pathways activated (qPCR array) was “phosphoinositide 3-kinase (PI3K), mitogen-activated protein kinase (MAPK), phospholipase C gamma (PLC-gamma), Janus kinase-signal transducer and activator of transcription (JAK-STAT) and Ras homologous (Rho) pathways; also recorded: PI3K–AKT–GSK3, Ras–Raf–MEK–ERK–MAPK, PLC gamma, STAT and Rho signaling pathways” and the “gene expression profile, EGF/PDGF pathway” value (qPCR array heat map) was “upregulation of most genes involved in EGF/PDGF pathways”. The expression class (AKT1, PI3K signaling) was “+”, the fold change (AKT1, PI3K signaling) was “(0.95)” and the expression class (AKT3, PI3K signaling) was “+”. The fold change (AKT3, PI3K signaling) was “(1.11)”, the expression class (ATF1, MAPK signaling) was “+” and the expression class (ATF2, MAPK signaling) was “+”. For the same substance, the fold change (ATF2, MAPK signaling) was “(0.89)”, the expression class (CASP3, MAPK signaling) was “+” and the fold change (CASP3, MAPK signaling) was “(1.05)”. The expression class (CASP9, MAPK signaling) was “+”, the fold change (CASP9, MAPK signaling) was “(0.93)” and the expression class (CBL, MAPK signaling) was “−”. The fold change (CBL, MAPK signaling) was “(1.00)”, the expression class (CCND1, PI3K signaling) was “−” and the fold change (CCND1, PI3K signaling) was “(1.17)”. For the same substance, the expression class (DUSP1, MAPK signaling) was “+”, the fold change (DUSP1, MAPK signaling) was “(0.97)” and the expression class (DUSP6, MAPK signaling) was “+”. The fold change (DUSP6, MAPK signaling) was “(1.05)”, the expression class (E1F4E, PI3K signaling) was “+” and the fold change (E1F4E, PI3K signaling) was “(1.28)”. For the same substance, the expression class (ELK1, JAK-STAT signaling) was “+”, the fold change (ELK1, JAK-STAT signaling) was “(1.08)” and the expression class (FOS, JAK-STAT signaling) was “+”. The fold change (FOS, JAK-STAT signaling) was “(1.50)”, the expression class (GAB1, PI3K signaling) was “+” and the fold change (GAB1, PI3K signaling) was “(1.00)”. The expression class (GRB2, PI3K signaling) was “+”, the fold change (GRB2, PI3K signaling) was “(1.07)” and the expression class (GSK3A, PI3K signaling) was “unc”. The fold change (GSK3A, PI3K signaling) was “(0.87)”, the expression class (GSK3B, PI3K signaling) was “+” and the fold change (GSK3B, PI3K signaling) was “(1.06)”. For the same substance, the expression class (HRAS, MAPK signaling) was “+”, the fold change (HRAS, MAPK signaling) was “(0.93)” and the expression class (IKBKB (IKK), PI3K signaling) was “+”. For the same substance, the fold change (IKBKB (IKK), PI3K signaling) was “(1.06)”, the expression class [1] was “+” and the fold change [1] was “(1.06)”. The expression class (IKBKB, MAPK signaling) was “+”, the expression class (JAK1, JAK-STAT signaling) was “+” and the fold change (JAK1, JAK-STAT signaling) was “(1.02)”. For the same substance, the expression class (JUN, JAK-STAT signaling) was “+”, the fold change (JUN, JAK-STAT signaling) was “(1.32)” and the expression class (MAP2K1 (MEK1), MAPK signaling) was “unc”. The fold change (MAP2K1 (MEK1), MAPK signaling) was “(0.91)”, the expression class (MAP2K4 (MKK4), MAPK signaling) was “unc” and the fold change (MAP2K4 (MKK4), MAPK signaling) was “(0.84)”. For the same substance, the expression class (MAP2K7 (MKK7), MAPK signaling) was “+”, the fold change (MAP2K7 (MKK7), MAPK signaling) was “(1.0)” and the expression class (MAP3K2 (MEKK2), MAPK signaling) was “+”. The fold change (MAP3K2 (MEKK2), MAPK signaling) was “(1.27)”, the expression class (MAPK1 (ERK2), MAPK signaling) was “+” and the fold change (MAPK1 (ERK2), MAPK signaling) was “(1.03)”. For the same substance, the expression class (MAPK3 (ERK1), MAPK signaling) was “+”, the fold change (MAPK3 (ERK1), MAPK signaling) was “(0.98)” and the expression class (MAPK8, MAPK signaling) was “+”. For the same substance, the fold change (MAPK8, MAPK signaling) was “(0.99)”, the expression class (MAPK9, MAPK signaling) was “unc” and the fold change (MAPK9, MAPK signaling) was “(0.80)”. For the same substance, the expression class (MAPK10, MAPK signaling) was “−”, the fold change (MAPK10, MAPK signaling) was “(0.55)” and the expression class (MKNK1, MAPK signaling) was “−”. The fold change (MKNK1, MAPK signaling) was “(0.82)”, the expression class (NFATC3, MAPK signaling) was “+” and the fold change (NFATC3, MAPK signaling) was “(1.22)”. The expression class (NFKB, PI3K signaling) was “+”, the fold change (NFKB, PI3K signaling) was “(1.02)” and the expression class (NFKB, PLC gamma signaling) was “+”. The fold change (NFKB, PLC gamma signaling) was “(1.02)”, the expression class (P13KCA, PI3K signaling) was “+” and the fold change (P13KCA, PI3K signaling) was “(1.47)”. For the same substance, the expression class (PDPK1 (PDK1), PI3K signaling) was “unc”, the fold change (PDPK1 (PDK1), PI3K signaling) was “(0.95)” and the expression class (PIK3R1, PI3K signaling) was “+”. The fold change (PIK3R1, PI3K signaling) was “(0.98)”, the expression class (PIK3R2, PI3K signaling) was “+” and the fold change (PIK3R2, PI3K signaling) was “(1.17)”. For the same substance, the expression class [2] was “+”, the fold change [2] was “(1.18)” and the expression class [3] was “+”. The fold change [3] was “(0.94)”, the expression class (PRKCA, PLC gamma signaling) was “+” and the fold change (PRKCA, PLC gamma signaling) was “(1.10)”. The expression class (RAP1A, MAPK signaling) was “+”, the fold change (RAP1A, MAPK signaling) was “(1.14)” and the expression class [4] was “+”. For the same substance, the fold change [4] was “(1.07)”, the expression class (RHOA, Rho signaling) was “+” and the fold change (RHOA, Rho signaling) was “(1.08)”. For the same substance, the expression class [5] was “+”, the fold change [5] was “(0.97)” and the expression class [6] was “+”. The fold change [6] was “(0.97)”, the expression class [7] was “+” and the fold change [7] was “(0.97)”. The expression class [8] was “+”, the fold change [8] was “(1.00)” and the expression class [9] was “+”. For the same substance, the fold change [9] was “(1.00)”, the expression class [10] was “+” and the fold change [10] was “(1.00)”. The expression class (SHC1, MAPK signaling) was “+”, the fold change (SHC1, MAPK signaling) was “(0.94)” and the expression class (SHC1, PI3K signaling) was “+”. The fold change (SHC1, PI3K signaling) was “(0.94)”, the expression class (SRC, JAK-STAT signaling) was “+” and the fold change (SRC, JAK-STAT signaling) was “(1.18)”. The expression class (STAT3, JAK-STAT signaling) was “+”, the fold change (STAT3, JAK-STAT signaling) was “(1.06)” and the expression class (STAT5, JAK-STAT signaling) was “+”. For the same substance, the fold change (STAT5, JAK-STAT signaling) was “(1.06)”, the expression class (TP53, MAPK signaling) was “+” and the fold change (TP53, MAPK signaling) was “(0.96)”. For the same substance, the expression class (TP53, PI3K signaling) was “+” and the fold change (TP53, PI3K signaling) was “(0.96)”.

Source: PMC9605497, “Potential of Epidermal Growth Factor-like Peptide from the Sea Cucumber Stichopus horrens to Increase the Growth of Human Cells: In Silico Molecular Docking Approach” (Marine Drugs, 2022)
